We go through 56 compounds from paper PMC12040169 (PLOS Biology, 2025).

The structures appear in SMILES notation.

The nature of the series: in vitro. Particulars: human, hela cells, % viability.
Broadly, the viability is a read-out of living cells in per cent, often relative to untreated cells. `COc1ccc(-c2nc3ncccc3cc2O)cc1C` [CBK073700]: the viability at 28.5 h, 10 µM turned out to be 70.1%.

As to `CCCCc1ccc(-c2nc3ncccc3cc2O)cc1` [CBK073702], the viability at 28.5 h, 10 µM came out at 91.3%.

Turning to `Oc1cc2cccnc2nc1-c1ccc(OCc2ccccc2)c(F)c1` [CBK073708], the viability at 28.5 h, 10 µM was found to be 91.2%.

Take `O=c1ccc2ccc(-c3ccsc3)nc2[nH]1` [CBK073710]: the viability at 28.5 h, 10 µM was 97%.

Regarding `CC(C)(C)c1ccc(-c2ccc3ccc(=O)[nH]c3n2)cc1` [CBK073716], the viability at 28.5 h, 10 µM is 96.5%.

Regarding `CS(=O)(=O)c1ccc(-c2ccc3ccc(=O)[nH]c3n2)cc1` [CBK073719], the viability at 28.5 h, 10 µM came out at 86.7%.

Take `COc1cc(-c2ccc3ccc(=O)[nH]c3n2)cc(OC)c1OC` [CBK073721]: the viability at 28.5 h, 10 µM worked out at 98.8%.

As for `O=c1ccc2ccc(-c3cccc(OCc4ccccc4)c3)nc2[nH]1` [CBK073722], the viability at 28.5 h, 10 µM amounted to 95.9%.

For the compound `COc1ccc(-c2ccnc3[nH]c(=O)ccc23)cc1C` [CBK073726], the viability at 28.5 h, 10 µM amounted to 110%.

In the case of `O=c1ccc2c(-c3cccc(C(F)(F)F)c3)ccnc2[nH]1` [CBK073733], the viability at 28.5 h, 10 µM was determined as 90.5%.

With `COc1ccc(C(C)C)cc1-c1ccnc2[nH]c(=O)ccc12` [CBK073735], the viability at 28.5 h, 10 µM was determined as 102%.

`COc1ccc([C@@]23CC[C@@H](NC(=O)Nc4ccc5c(c4)OC(F)(F)O5)C[C@@H]2N(C)CC3)cc1OC` [CBK073743T]: the viability at 28.5 h, 10 µM worked out at 88.8%.

As to `CCNc1cc2ccccc2c(-c2cc(C(C)C)ccc2OC)n1` [CBK073777], the viability at 28.5 h, 10 µM is 110%.

With `COc1ccc(C(C)C)cc1-c1nc(NS(C)(=O)=O)cc2ccccc12` [CBK073779], the viability at 28.5 h, 10 µM is 94.2%.

`CC(C)C(=O)Nc1cc2ccccc2c(-c2ccc(OCc3ccccc3)c(F)c2)n1` [CBK073783]: the viability at 28.5 h, 10 µM turned out to be 89.8%.

`CS(=O)(=O)Nc1cc2ccccc2c(-c2ccc(OCc3ccccc3)c(F)c2)n1` [CBK073785]: the viability at 28.5 h, 10 µM was 92.7%.

Turning to `CC(C)C(=O)Nc1cc2ccccc2c(-c2cccnc2)n1` [CBK073786], the viability at 28.5 h, 10 µM came out at 101%.

As to `CN1C(=O)C(CCNc2ccccc2)S/C1=N/C1CC2C=CC1C2` (centres unmarked) [CBK073812], the viability at 28.5 h, 10 µM came out at 114%.

Turning to `c1ccc(C(CC2CCCCC2)NCc2cccnc2)cc1` (centres unmarked) [CBK073816], the viability at 28.5 h, 10 µM amounted to 96.3%.

For the compound `COc1ccc(C)cc1S(=O)(=O)Nc1cc(N2CCNC(C(F)(F)F)C2)c2occc2c1` (centres unmarked) [CBK073818C], the viability at 28.5 h, 10 µM stood at 104%.

With `COc1cc([C@@]23CC[C@@H](NC(=O)Nc4cc(F)ccc4F)C[C@@H]2N(C)CC3)ccc1OC(F)F` [CBK073834], the viability at 28.5 h, 10 µM is 106%.

For the compound `Cc1ccc(S(=O)(=O)Nc2nccnc2-c2ccc(Cc3nnn[nH]3)cc2)cc1` [CBK073841], the viability at 28.5 h, 10 µM came out at 96.9%.

In the case of `O=C(O)CCC(=O)NCc1ccc(-c2nccnc2NS(=O)(=O)c2ccc(O)cc2)cc1` [CBK073843], the viability at 28.5 h, 10 µM was found to be 106%.

Turning to `O=Cc1ccc(-c2nccnc2NS(=O)(=O)c2ccccc2)cc1` [CBK073845], the viability at 28.5 h, 10 µM was 97.3%.

On to `CCC(CC)C(=O)N1c2ccccc2C(C)(c2ccccc2)CC1(C)C` (centres unmarked) [CBK073862], for which the viability at 28.5 h, 10 µM turned out to be 91.5%.

`Cc1noc(C)c1S(=O)(=O)Nc1ccc2cc(Br)cnc2n1` [CBK073893]: the viability at 28.5 h, 10 µM turned out to be 93.1%.

Consider `O=S(=O)(Nc1ccc2cc(Br)cnc2n1)c1cccc2nsnc12` [CBK073894], for which the viability at 28.5 h, 10 µM turned out to be 82.8%.

For `O=C(O)c1cc(S(=O)(=O)Nc2ccc3cc(Br)cnc3n2)c(F)cc1Cl` [CBK073898], the viability at 28.5 h, 10 µM is 92.2%.

`CCNC(=O)c1cn(Cc2ccccc2)nn1` [CBK073904]: the viability at 28.5 h, 10 µM was 97.9%.

In the case of `COc1ccc([C@@]23CC[C@@H](NC(=O)c4ccc(C(F)(F)F)cc4F)C[C@@H]2N(C)CC3)cc1OC` [CBK073976T], the viability at 28.5 h, 10 µM is 108%.

For the compound `COc1ccc([C@@]23CC[C@@H](NC(=O)Nc4cc(F)c(C#N)cc4F)C[C@@H]2N(C)CC3)cc1OC` [CBK073979T], the viability at 28.5 h, 10 µM turned out to be 98.2%.

Regarding `COc1ccc([C@@]23CC[C@@H](NC(=O)c4cccc(Cl)c4)C[C@@H]2N(C)CC3)cc1OC` [CBK073982T], the viability at 28.5 h, 10 µM was 93.5%.

Consider `O=S(=O)(Nc1cc(OC2CCCNC2)c2occc2c1)c1cc(F)ccc1F` (centres unmarked) [CBK073996C], for which the viability at 28.5 h, 10 µM came out at 105%.

On to `CC(C)[C@H]1SC(NC[C@H](C)c2ccccc2)=NC1=O` [CBK074034], for which the viability at 28.5 h, 10 µM worked out at 93.6%.

`FC(F)(F)Oc1ccccc1-c1nnc(NC2CCCCCC2)s1` [CBK074041]: the viability at 28.5 h, 10 µM amounted to 93.8%.

With `CS(=O)(=O)Nc1nccnc1N1CCNCC1` [CBK074045T], the viability at 28.5 h, 10 µM was 105%.

As for `Cc1cccc(C(=O)N2CCCC(C)C2)c1` (centres unmarked) [CBK074057], the viability at 28.5 h, 10 µM is 95.4%.

As for `COc1ccccc1CCCN1CCC2(C1)c1[nH]c3ccccc3c1CCN2S(C)(=O)=O` (centres unmarked) [CBK074095], the viability at 28.5 h, 10 µM was 113%.

As for `COc1ccc(C(c2ccccc2C)N(C)C(=O)C2CCNCC2)cn1` (centres unmarked) [CBK074124], the viability at 28.5 h, 10 µM turned out to be 100%.

Consider `COc1cc(C)ccc1S(=O)(=O)Nc1cc(OC2CCNCC2)c2occc2c1` [CBK074192C], for which the viability at 28.5 h, 10 µM is 98.6%.

Take `CCC1CCCCN1C(=O)c1cc2ccccc2s1` (centres unmarked) [CBK074211]: the viability at 28.5 h, 10 µM turned out to be 85.3%.

For `COc1ccc([C@@]23CC[C@@H](NC(=O)c4ccc(-c5csnn5)cc4)C[C@@H]2N(C)CC3)cc1OC` [CBK074256T], the viability at 28.5 h, 10 µM came to 100%.

Turning to `COc1ccc([C@@]23CC[C@@H](NC(=O)c4cc(F)c(Cl)cc4Cl)C[C@@H]2N(C)CC3)cc1OC` [CBK074264T], the viability at 28.5 h, 10 µM amounted to 97.4%.

`CS(=O)(=O)Nc1nccnc1OC1CCNCC1` [CBK074265T]: the viability at 28.5 h, 10 µM was found to be 90.6%.

In the case of `CC1(CC(=O)N2CCCCCC2)SC(NC2CCCCCC2)=NC1=O` (centres unmarked) [CBK074269], the viability at 28.5 h, 10 µM is 96%.

As to `COc1ccc(CNC(C)C2COc3ccccc3O2)c(OC)c1` (centres unmarked) [CBK074283G], the viability at 28.5 h, 10 µM came to 88.8%.

For the compound `CCOC(=O)CCNC(C)C1COc2ccccc2O1` (centres unmarked) [CBK074284G], the viability at 28.5 h, 10 µM is 101%.

As for `CCOC(=O)c1sc(-c2ccccc2)nc1O` [CBK074298], the viability at 28.5 h, 10 µM is 96.9%.

In the case of `COc1ccc([C@@]23CCN(C(=O)c4ccc(Cl)c(Cl)c4)C[C@@H]2CN(C)C3)cc1OC` [CBK074308T], the viability at 28.5 h, 10 µM amounted to 99.4%.

Consider `CC(=O)Nc1ccc(N2CCN(CCO)CC2)cc1OCCCOc1ccccc1` [CBK074317T], for which the viability at 28.5 h, 10 µM came to 110%.

Turning to `CCC1CCCCN1C(=O)c1cc2cc(Cl)ccc2[nH]1` (centres unmarked) [CBK074329], the viability at 28.5 h, 10 µM worked out at 102%.

`COc1ccc(C(=O)N2CCC(Cc3ccccc3)CC2)cc1` [CBK074337]: the viability at 28.5 h, 10 µM came to 95.8%.

As for `COc1ccc(C(=O)N2CCC(C)CC2)cc1[N+](=O)[O-]` [CBK074341], the viability at 28.5 h, 10 µM was determined as 93.3%.

`O=C1CC(NCc2ccc3c(c2)OCO3)C(=O)N1c1ccc(OC(F)(F)Cl)cc1` (centres unmarked) [CBK074357]: the viability at 28.5 h, 10 µM turned out to be 87.7%.

As for `O=C(/C=C\c1ccc(Cl)cc1Cl)N1CCN(Cc2ccc3c(c2)OCO3)CC1` [CBK074371], the viability at 28.5 h, 10 µM turned out to be 97.3%.

For `Cc1cc(OCC(O)CN2CCN(Cc3ccc4c(c3)OCO4)CC2)cc(C)c1Cl` (centres unmarked) [CBK074374], the viability at 28.5 h, 10 µM came out at 93.4%.
